Test results as given in patent US9725490B2, “ERAP1-derived peptide and use thereof” (TOKUSHIMA UNIVERSITY, priority 2011, dated 2017).
Each block holds one molecule with its values, some of them ahead of it. Where a SMILES comes first, the peptide text is derived from it. The star is where a group is joined. Cbz = O=C(OCc1ccccc1)*

Key:
[1] = target: T1, binding of inherent ERAP1 and inherent PHB2/REA (Homo sapiens, UniProt Q99623); test: Inhibition of ERAP1-PHB2/REA binding in cells, immunoprecipitation-Western blotting; format: cell-based; conditions: MCF-7 and KPL-3C cells; 10 μM peptide; 10 nM E2 24 hours
T1 construct: endogenous in cells; host or cells: MCF-7 and KPL-3C breast cancer cells

[2] = tested on: transcriptional activity of ERα (ERE); test: ERE-luciferase reporter assay in MCF-7 cells; format: cell-based, human; conditions: 10 nM E2 24 hours
Protocol: FIG. 3-2 is a diagram illustrating promotion effect of PHB2 nuclear translocation and suppression effect of the transcriptional activation of ER by ERAP1-peptide treatment. (C) illustrates representative images of stained immune cells, showing the localization of the ERAP1-peptide (HA-tagged ERAP1-peptide) and PHB2. MCF-7 cells were treated with 10 μM HA-tagged ERAP1-peptide for 24 hours in the presence or in the absence of 10 nM E2. After the immobilization, the cells were subjected to immunonfluorescent staining using an anti-HA antibody, an anti-PHB2 antibody and DAPI (for discriminating the nucleus). The arrow indicates the nuclear-translocated ERAP1-peptide. […] Then, immediately, the cells were stimulated with 10 nM E2 for 24 hours. TAM indicates the tamoxifen treatment.
(§1) FIG. 3-3 is as diagram illustrating the results of the luciferase assay by which the inhibition effect of the ERAP1-peptide was evaluated. MCF-7 cells temporarily transfected with an ERE-luciferase reporter vector (F) or an AP-1-luciferase reporter vector (F) were treated with the ERAP1-peptide, the scramble peptide or the mutant peptide in the concentrations shown in the […]. Then, immediately, the cells were stimulated with 10 nM E2 for 24 hours. TAM indicates the tamoxifen treatment.
(§2) FIG. 4-3 is a diagram illustrating that the ERAP1-peptide promotes nuclear translocation of PHB2. (C) and (D) are figures that show the results of the luciferase assay by which the inhibition effect of the ERAP1-peptide on the ERα transcriptional activity was evaluated. MCF-7 cells temporarily transfected with an ERE-luciferase reporter vector (C) or an AP-1-luciferase reporter vector (D) were treated with the ERAP1-peptide in the concentrations shown in the figure or 10 nM tamoxifen. Then, immediately, the cells were stimulated with 10 nM E2 thr 24 hours.
(§3) For ERE reporter assay, MCF-7 cells were transfected with ERE reporter (SABiosciences, Frederick, Md., USA) in accordance with the instruction of the manufacturer. For AP-1 reporter assay, MCF-7 cells were transfected with AP-1 reporter (mouse IL-11 promoter comprising two tandem AP-1 sites subcloned into PGL2-basic vector), c-fos, c-Jun and pRL-TK as an internal standard. After 16 hours from the transfection, the culture medium was exchanged with an assay culture medium (Opti-MEM, 10% FBS, 0.1 mM NEAA, 0.1 mM Sodium pyruvate and 10 μg/ml insulin) After 24 hours from the transfection, the cells were treated with E2 and/or the ERAP1-peptide or 24 hours. The cells were harvested, and the activities of luciferase and Renilla-luciferase were evaluated using Promega dual luciferase reporter assay (Tokyo, Japan). In consideration of the transfection efficiency, all of the data were standardized by the activity of Renilla-luciferase.

[3] = tested on: transcriptional activity of ERα (AP-1); test: AP-1-luciferase reporter assay in MCF-7 cells; format: cell-based, human; conditions: 10 nM E2 24 hours
Protocol: as §1, §2, §3

ERα = ERα down-regulation and polyubiquitination in MCF-7 cells; format: cell-based, human; conditions: MCF-7, E2 in the presence of MG132, no peptide
Protocol: FIG. 4-5 is a diagram illustrating that the ERAP1-peptide promotes nuclear translocation of PHB2. […] Then, the protein level and the mRNA level for the expression of ERα were obtained by Western blotting (the upper panel: Protein) and semi-quantitative RT-PCR (the lower panel: mRNA), respectively. β-actin is a loading control for each. […] MCF-7 cells were treated with the ERAP1-peptide and/or E2 in the presence of 1 μM MG-132 for 1 hour. Then, the cell lysate was immunoprecipitated with anti-ERα antibody.
Down-regulation of ERα was evaluated by semi-quantitative reverse transcription PCR. Complete RNA was extracted using RNeasy Mini purification kit (Qiagen) from E2-treated cells in the presence or in the absence of the ERAP1 peptide, and reverse-transcribed into cDNA using Superscript II reverse transcriptase (Invitrogen), oligo dT primer (nvitrogen) and 25 mM dNTP Mixture (Invitrogen). mRNAs of ERα and β-actin were measured with GeneAmp PCR system (Applied Biosystems, Foster, Calif., USA). The primers are as described below: […]

[4] = tested on: phosphorylation of ERAP1 and PHB2/REA; test: PKA inhibition by H-89, immunoblotting of ERAP1 and PHB2/REA phosphorylation, MCF-7; format: cell-based, human
Protocol: Then, the cell lysate solution was immunoprecipitated with anti-ERAP1 antibody. Furthermore, the phosphatase activity of the obtained sample was calculated. […] MCF-7 cells suppressed for expression of PKA or PKB, or both of PKA and PKB by siRNA method, were treated with 10 μM ERAP1 peptide. Then, immediately, the cells were stimulated with 10 nM E2 for 24 hours. […] MCF-7 cells were treated with H-89 for 30 minutes and washed with PBS. Then, the cells were treated with 10 μM ERAP1-PEPTIDE. Then, immediately, the cells were stimulated with 10 nM E2 for 24 hours. […] (S39) is caused. MCF-7 cells suppressed for expression of PKA by siRNA method, were stimulated with 10 nM E2 for 24 hours. In addition, MCF-7 cells were treated with H-89 for 30 minutes and washed with PBS. Then, immediately, the cells were stimulated with 10 nM E2 for 24 hours. […] Then, immediately, the cells were stimulated with 10 nM E2 for 24 hours. […] MCF-7 cells suppressed for expression of PKCα by siRNA method were treated with 10 μM ERAP1 peptide. Then, immediately, the cells were stimulated with 10 nM E2 for 24 hours. The cells were fractionated into cytoplasm and nuclear fractions by specific gravity centrifugation.

MCF-7 cells = test: E2-dependent cell proliferation assay (MTT/CCK-8), MCF-7; format: cell-based, human; conditions: 10 nM E2, up to 24 hours
Protocol: FIG. 6-1 is a diagram illustrating that ERAP1-peptide treatment suppresses ERα-dependent cell proliferation of breast cancer cell lines. (A) and (B) show the results of MTT assay by which the inhibition effect of the ERAP1-peptide in the E2-dependent cell proliferation was evaluated. MCF-7 cells were treated with the ERAP1-peptide (A, B) the ERAP1-scramble peptide (B) or the ERAP1-mutant peptide (B).
FIG. 7-1 is a diagram illustrating that ERAP1-peptide treatment suppresses ERα-dependent cell proliferation of breast cancer cell lines. […] KPL-3C cells were treated with the ERAP1-peptide, the scramble peptide or the mutant peptide. Then, immediately, the cells were stimulated with 10 nM E2 for 24 hours. […] Then, immediately, the cells were stimulated with 10 nM E2. Then, the ERAP1-peptide was added every day for […]. […] The arrow indicates addition of the ERAP1-peptide.
FIG. 7-3 is a diagram illustrating that ERAP1-peptide treatment suppresses ERα-dependent cell proliferation of breast cancer cell lines. […] MCF-7 cells were treated with 10 μM ERAP1-peptide. Then, immediately, the cells were stimulated with 10 nM E2 (white square). Then, 10 μM ERAP1-peptide was added every day for four days (black square).
FIG. 20 is a diagram illustrating the results of evaluations for the influence of the difference of the sequence on E2-dependent cell proliferation suppression effect. […] Then, immediately, the cells were stimulated with E2 for 24 hours.
MCF-7 cells were suspended in MEM (Invitrogen, Carlsbad, Calif., USA) reinforced with 10% FBS (Nichirei Biosciences, Tokyo, Japan), 1% antibiotic/antimycotic solution (Invitrogen), 0.1 mM NEAA (Tnvitrogen), 1 mM sodium pyruvate and 10 μg/ml insulin (Sigma, St. Louis, Mo., USA). Then, the cell suspension was seeded in a 48-well plate (2×10^4 cells/200 μl), a 24-well plate (1×10^5 cells/1 ml), a 6-well plate (5×10^5 cells/2 ml) or 10 cm dish (2×10^6 cells/10 ml). The cells were maintained at 37° C. in humidified atmosphere containing 5% carbon dioxide. On the next day of the seeding, the culture medium was exchanged with phenol red-free DMEM/F12 (Invitrogen) reinforced with FBS, an antibiotic/antimycotic solution, NEAA, sodium pyruvate and insulin. After 24 hours, the cells were treated with 10 nM 17β estradiol (E2, Sigma). The ERAP-1 peptide was added just before the E2 stimulation in the inhibition test.
Using Cell-Counting Kit-8 (CCK-8, Dojindo, Kumamoto, Japan), the cell proliferation assay was performed. […] Then, the absorbance at 450 nm was measured and the number of living cells in each well was calculated.
The cell proliferation assay was evaluated using Cell-Counting Kit-8 (CCK-8, Dojindo, Kumamoto, Japan). […] Then, 100 μl from each well was moved to a 96-well plate, and the absorbance at 450 nm was measured with a microplate reader.

[5] = H-89 30 minutes, then E2 24 hours
[6] = comparison with siPKA, increasing dose of H-89

T1 sequence (Q99623 2-299 limits assumed): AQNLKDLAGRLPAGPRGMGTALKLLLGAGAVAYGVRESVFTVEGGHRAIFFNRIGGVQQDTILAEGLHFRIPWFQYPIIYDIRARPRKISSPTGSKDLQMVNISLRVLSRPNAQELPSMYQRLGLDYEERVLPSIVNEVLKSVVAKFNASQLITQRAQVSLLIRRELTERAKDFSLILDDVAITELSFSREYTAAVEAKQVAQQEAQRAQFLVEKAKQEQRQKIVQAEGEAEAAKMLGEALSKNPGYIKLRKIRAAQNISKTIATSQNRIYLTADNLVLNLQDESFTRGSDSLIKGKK

- inhibition of the binding of inherent ERAP1 and inherent PHB2/REA [1]: not recognized in any of the cells
Molecule: AMLSALTLALRQR (SEQ ID NO: 29) (ERAP1-mutant peptide)
- transcriptional activity of ERα in ERE [2]: no change was recognized
- transcriptional activity of ERα in AP-1 [3]: no change was recognized

Molecule: CC(C)C[C@@H](C=O)NC(=O)[C@H](CC(C)C)NC(=O)[C@H](CC(C)C)NC(=O)OCc1ccccc1 [MG132, reference compound] (Cbz-Leu-Leu-Leu-aldehyde)
- protein decrease and polyubiquitination of ERα with E2 (ERα): the protein decrease of ERα was suppressed and polyubiquitination of ERα was recognized

Molecule: O=S(=O)(NCCNC/C=C/c1ccc(Br)cc1)c1cccc2cnccc12 [H-89]
- phosphorylation of the threonine residue of ERAP1 [4, 5]: decreased in dose-dependent manner
- phosphorylations of the serine and tyrosine residues of ERAP1 [4, 5]: remarkably decreased at 0.5 μM
- Ser39 phosphorylation of PHB2/REA after E2 treatment [4, 6]: as the dose of H-89 increased, Ser39 phosphorylation of PHB2/REA also decreased
- phosphorylation of the serine residue of ERAP1 after E2 treatment [4, 6]: as the dose of H-89 increased, disappearance of the phosphorylation was confirmed
- phosphorylation of Ser39 of PHB2/REA ([4]; stimulated by E2 and treated with H-89, no peptide): remarkable recovery was recognized
- phosphorylation of Ser39 of PHB2/REA ([4]; with ERAP-peptide, 20 μM H-89): the phosphorylation completely disappeared

Molecule: ATLSQMLSDLTLQ (SEQ ID NO: 30) (ERAP1 dominant negative peptide) [ERAP1-peptide-2, 161-173 amino acid residues of ERAP1]
- E2-dependent cell proliferation (MCF-7 cells): suppressed the E2-dependent cell proliferation in dose-dependent manner
